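Five concentrations, 48 hours, 96-well plates. The concentration for full growth arrest is given as TGI.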
Columns and labels:
Assay in all cases: NCI anticancer screen, dose series, 48 h
[1] = test system: NCI/ADR-RES ovarian
[2] = test system: UO-31 renal
[3] = test system: MOLT-4 leukemia
[4] = test system: 786-0 renal
[5] = test system: PC-3 prostate
[6] = test system: RXF 393 renal
[7] = test system: OVCAR-8 ovarian
[8] = test system: SF-539 CNS
[9] = test system: MCF7 breast
[10] = test system: SNB-19 CNS
[11] = test system: ACHN renal
[12] = test system: OVCAR-4 ovarian
[13] = test system: NCI-H522 lung
[14] = test system: SK-MEL-2 melanoma
[15] = test system: TK-10 renal
[16] = test system: MDA-MB-435
[17] = test system: T-47D breast
[18] = test system: K-562 leukemia
[19] = test system: UACC-62 melanoma
[20] = test system: IGROV1 ovarian

Structure (SMILES)	TGI [1]	TGI [2]	TGI [3]	TGI [4]	TGI [5]	TGI [6]	TGI [7]	TGI [8]	TGI [9]	TGI [10]	TGI [11]	TGI [12]	TGI [13]	TGI [14]	TGI [15]	TGI [16]	TGI [17]	TGI [18]	TGI [19]	TGI [20]
CC(C)=C[C@H]1CCC2(OCCO2)[C@]1(C)COCc1ccccc1	> 100 µM	> 100 µM	32.3 µM	80.1 µM	> 100 µM	31.7 µM	> 100 µM	61.7 µM	> 100 µM	> 100 µM	> 100 µM	> 100 µM	62.1 µM	85.9 µM	> 100 µM	> 100 µM	> 100 µM			
O=C(/C=C/c1ccc2ccccc2c1)NCc1ccc(C(=O)NCCc2ccccc2)cc1	> 100 µM	> 100 µM	> 100 µM	> 100 µM	> 100 µM	> 100 µM	> 100 µM		> 100 µM	> 100 µM	> 100 µM	> 100 µM		> 100 µM		> 100 µM	> 100 µM	> 100 µM	> 100 µM	
O=C1c2ccccc2C(=O)N1CCCCNOCCCN1C(=O)c2ccccc2C1=O	> 100 µM	> 100 µM	> 100 µM	> 100 µM	> 100 µM	> 100 µM	> 100 µM		> 100 µM	> 100 µM	> 100 µM	> 100 µM	> 100 µM		> 100 µM	> 100 µM	> 100 µM	> 100 µM	> 100 µM	> 100 µM
COC(=O)C1=CS/C(=C2\S[C@@H]3[C@H](S2)[C@H]2C=C[C@@H]3C2)S1	47.8 µM	> 100 µM	> 100 µM	> 100 µM	> 100 µM	> 100 µM	> 100 µM	32.5 µM	> 100 µM	> 100 µM		> 100 µM		> 100 µM	> 100 µM	5.09 µM	> 100 µM	18.5 µM	> 100 µM	> 100 µM
CCCCC1Cc2ccccc2-c2nc3ccccc3n21 (centres undefined)	33.5 µM	36.1 µM	32.9 µM	61.9 µM	22.1 µM	34.5 µM	34.9 µM	41.4 µM	32.9 µM		31 µM	29.8 µM	26.5 µM	30.7 µM	31.5 µM	37.1 µM	29.4 µM	31.7 µM		32.9 µM
CCOC1=NC(O)c2cccn2-c2sccc21 (centres undefined)	> 100 µM	> 100 µM	> 100 µM	> 100 µM	> 100 µM	> 100 µM	> 100 µM	> 100 µM	> 100 µM	> 100 µM	> 100 µM	> 100 µM	> 100 µM	> 100 µM	> 100 µM	> 100 µM	> 100 µM	> 100 µM	> 100 µM	
CC(=O)O[C@H]1C(=O)[C@@]2(C)[C@H]([C@H](OC(=O)c3ccoc3)[C@]3(O)C[C@H](OC(=O)[C@H](O)[C@@H](NC(=O)c4ccccc4)c4ccccc4)C(C)=C1C3(C)C)[C@]1(OC(C)=O)CO[C@@H]1C[C@@H]2O	> 12.5 µM	> 12.5 µM	> 11.6 µM	> 12.5 µM	> 12.5 µM	> 11.8 µM	> 12.5 µM	0.221 µM	> 12.5 µM	> 12.5 µM	> 12.5 µM	> 12.5 µM		0.696 µM	> 12.5 µM	0.0236 µM	> 12.5 µM	0.156 µM	> 12.5 µM	> 12.5 µM
CC(=O)OC1C(Oc2c(C)cc3c(c2O)[C@@H](C)CC[C@@H]3[C@@H](C)CCC=C(C)C)OCC(O)C1O (some centres undefined)	40.6 µM	32.2 µM	49.7 µM	32.8 µM	39.6 µM		47.4 µM	34.7 µM	42.5 µM	35.1 µM	35.5 µM		36.4 µM	45.2 µM		28.1 µM	43.5 µM	39.5 µM	34.9 µM	37.9 µM
CCOC(=O)C1C(=O)CC1(C)C (centres undefined)	> 10 µM	> 10 µM	> 10 µM	> 10 µM	> 10 µM	> 10 µM	> 10 µM	> 10 µM	> 10 µM	> 10 µM	> 10 µM	> 10 µM		> 10 µM	> 10 µM	> 10 µM	> 10 µM	> 10 µM	> 10 µM	> 10 µM
Nc1ccc(Cc2c(N)[nH]c(=O)[nH]c2=O)cc1	> 100 µM	> 100 µM	> 100 µM	> 100 µM	> 100 µM		> 100 µM	> 100 µM	> 100 µM	> 100 µM	> 100 µM	> 100 µM	> 100 µM	> 100 µM		> 100 µM	> 100 µM	> 100 µM	> 100 µM	
Nc1nc(-[n+]2ccc(-c3ccncc3)cc2)nc(Cl)c1Cl	> 100 µM	> 100 µM	37.2 µM	57.9 µM	> 100 µM	32.8 µM		68.1 µM	21.8 µM	> 100 µM	> 100 µM	> 100 µM		> 100 µM	59 µM	> 100 µM	45.9 µM	91.7 µM	> 100 µM	33.3 µM
Clc1ccc(-c2cc3nc4ccccc4nc3o2)cc1	> 100 µM	> 100 µM	> 100 µM	> 100 µM	> 100 µM	90 µM	> 100 µM	> 100 µM	> 100 µM	> 100 µM	> 100 µM	> 100 µM		> 100 µM	> 100 µM	> 100 µM	> 100 µM	> 100 µM	> 100 µM	> 100 µM
CN(C(=O)Cc1cccc(N=C=S)c1)[C@H]1CCCC[C@@H]1N1CCCC1	79.8 µM	29.3 µM	29 µM	28.6 µM	32.2 µM	25.9 µM	42.2 µM		27.5 µM	47.6 µM	27.2 µM	28.5 µM	27.6 µM	34.4 µM	24.3 µM	27.8 µM	26.8 µM	53.2 µM	29.4 µM	28.1 µM
